# From US20120270875A1, “PYRIMIDINE AMIDE COMPOUNDS” (priority 2011, published 2012)
# Target: sLFA-1/ICAM-1 (Homo sapiens, UniProt P05107+P20701, DEL701-769)
# Assay: sLFA-1/ICAM-1 ELISA
# Format: binding
# Conditions: sLFA-1 coated plates, 5dICAM-Fc binding, ELISA; read-out: LFA-1/ICAM (IC50)
# Method: sLFA-1/ICAM-1 ELISA and Mac-1/ICAM-1 ELISA
# Plates were coated with either 50 μl/well of 2.0 ug/ml solution of sLFA-1 or Mac-1 receptor in divalent cation buffer (1 mM MnCl2, 0.14M NaCl, 20 mM HEPES pH 7.2) at 4° C. overnight. Two hundred fifty μl of blocking buffer (1% BSA in divalent cation buffer) was added to each well 1 hour at 37° C. Plates were washed 3 times with wash buffer (TBS/0.05% Tween-20/1 mM MnCl2). The compound to be tested was solubilized in DMSO. A series of 1:3 dilutions were performed to achieve a concentration range of 0.45 nM-3 uM. Fifty μl of binding buffer (0.5% BSA in divalent cation buffer)/1% DMSO and 50 μl of the solutions to be tested were added to the appropriate wells and incubated for 1 hour. Fifty μl of 5dICAM-Fc (27 ng/ml) was added to the appropriate wells and 50 μl binding buffer was added to non-specific binding wells and incubated for 2 hours and washed. One hundred μl of 1:4000 HRP-goat anti-huIgG was added to each well and incubated for 1 hour and washed. One hundred μl of 1:1 TMB solution was added to each well and developed for 20 min at room temperature. Color development was stopped by adding 100 μl H3PO4 to each well. Absorbance was measured at 450 nm.
# Chain of sLFA-1/ICAM-1 (P20701 26-1090 limits assumed, stated change not applied): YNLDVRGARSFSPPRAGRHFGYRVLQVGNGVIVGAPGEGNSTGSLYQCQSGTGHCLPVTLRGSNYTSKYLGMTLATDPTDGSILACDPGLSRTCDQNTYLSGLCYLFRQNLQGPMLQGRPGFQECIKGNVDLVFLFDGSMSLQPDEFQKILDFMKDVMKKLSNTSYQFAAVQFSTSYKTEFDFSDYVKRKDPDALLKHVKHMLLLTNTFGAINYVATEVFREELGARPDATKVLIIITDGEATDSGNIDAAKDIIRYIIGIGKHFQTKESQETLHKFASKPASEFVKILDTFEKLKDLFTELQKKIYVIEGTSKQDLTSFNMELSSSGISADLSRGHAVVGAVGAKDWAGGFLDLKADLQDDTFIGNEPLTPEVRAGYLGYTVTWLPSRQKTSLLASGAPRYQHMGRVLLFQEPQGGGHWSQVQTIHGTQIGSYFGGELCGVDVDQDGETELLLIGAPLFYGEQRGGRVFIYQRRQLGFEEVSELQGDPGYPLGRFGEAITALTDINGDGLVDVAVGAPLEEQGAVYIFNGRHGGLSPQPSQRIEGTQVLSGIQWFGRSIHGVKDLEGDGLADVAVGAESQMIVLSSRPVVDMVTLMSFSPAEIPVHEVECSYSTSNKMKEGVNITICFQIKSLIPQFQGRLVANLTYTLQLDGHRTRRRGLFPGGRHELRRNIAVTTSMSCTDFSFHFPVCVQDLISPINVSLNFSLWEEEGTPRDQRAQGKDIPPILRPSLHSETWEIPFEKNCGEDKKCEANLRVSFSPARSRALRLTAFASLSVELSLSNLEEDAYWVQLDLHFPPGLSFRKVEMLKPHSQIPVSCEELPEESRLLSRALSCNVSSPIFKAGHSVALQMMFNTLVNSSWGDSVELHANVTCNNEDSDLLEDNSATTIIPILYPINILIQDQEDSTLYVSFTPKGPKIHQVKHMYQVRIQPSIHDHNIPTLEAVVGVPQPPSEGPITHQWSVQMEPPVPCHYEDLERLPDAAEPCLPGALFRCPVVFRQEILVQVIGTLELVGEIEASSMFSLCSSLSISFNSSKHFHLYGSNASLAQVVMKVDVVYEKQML
# Chain of sLFA-1/ICAM-1 (P05107 23-700 limits assumed, stated change not applied): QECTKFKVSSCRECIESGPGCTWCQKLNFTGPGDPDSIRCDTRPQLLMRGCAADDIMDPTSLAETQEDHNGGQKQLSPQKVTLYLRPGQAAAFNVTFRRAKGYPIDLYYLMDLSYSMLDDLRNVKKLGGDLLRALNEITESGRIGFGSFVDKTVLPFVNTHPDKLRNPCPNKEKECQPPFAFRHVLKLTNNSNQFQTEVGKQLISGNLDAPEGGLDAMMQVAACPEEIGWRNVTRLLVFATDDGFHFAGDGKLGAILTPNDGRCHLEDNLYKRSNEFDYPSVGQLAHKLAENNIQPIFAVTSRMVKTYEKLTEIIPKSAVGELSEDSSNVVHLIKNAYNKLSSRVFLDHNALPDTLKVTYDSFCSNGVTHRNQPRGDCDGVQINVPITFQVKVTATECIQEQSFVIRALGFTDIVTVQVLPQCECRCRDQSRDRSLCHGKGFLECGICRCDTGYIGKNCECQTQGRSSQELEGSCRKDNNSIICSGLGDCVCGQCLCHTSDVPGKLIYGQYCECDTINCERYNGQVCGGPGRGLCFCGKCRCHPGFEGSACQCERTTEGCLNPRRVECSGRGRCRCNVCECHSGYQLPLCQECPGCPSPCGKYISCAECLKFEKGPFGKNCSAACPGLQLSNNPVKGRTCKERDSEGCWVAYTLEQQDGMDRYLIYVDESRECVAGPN
row,SMILES,IC50
1,"CCc1nc(NCCCc2cccc(O)c2)nc(CC)c1C(=O)N[C@@H](CNC(=O)c1cccs1)C(=O)O [Example 79, (S)-2-({4,6-Diethyl-2-[3-(3-hydroxy-phenyl)-propylamino]-pyrimidine-5-carbonyl}-amino)-3-[(thiophene-2-carbonyl)-amino]-propionic acid]",90 nM
2,"Cc1nc(NCCCc2cccc(O)c2)nc(C)c1C(=O)N[C@@H](CNC(=O)CC1CCCCC1)C(=O)O [Example 44, (S)-2-({2-[3-(3-hydroxy-phenyl)-propylamino]-4,6-dimethyl-pyrimidine-5-carbonyl}-amino)-3-[1-cyclohexyl-acetylamino]-propionic acid]",115 nM
3,"Cc1nc(NCCCc2cccc(O)c2)nc(C)c1C(=O)N[C@@H](CNC(=O)c1csc(-c2ccncc2)n1)C(=O)O (single isomer, unassigned) [Example 41]",353 nM
4,"Cc1nc(NCCCc2cccc(O)n2)nc(C)c1C(=O)N[C@@H](CNC(=O)c1cccs1)C(=O)O [Example 52, (S)-2-({2-[3-(6-Hydroxy-pyridin-2-yl)-propylamino]-4,6-dimethyl-pyrimidine-5-carbonyl}-amino)-3-[(thiophene-2-carbonyl)-amino]-propionic acid]",1980 nM
5,"Cc1nc(NCCCc2cccc(O)c2F)nc(C)c1C(=O)N[C@@H](CNC(=O)c1cccs1)C(=O)O [Example 70, (S)-2-({2-[3-(2-Fluoro-3-hydroxy-phenyl)-propylamino]-4,6-dimethyl-pyrimidine-5-carbonyl}-amino)-3-[(thiophene-2-carbonyl)-amino]-propionic acid]",≥ 3000 nM
6,"Cc1nc(NC2CCc3cccc(O)c3C2)nc(C)c1C(=O)N[C@@H](CNC(=O)c1cccs1)C(=O)O (stereo partly drawn) [Example 18, (S) 2-(2-[8-hydroxy-1,2,3,4-tetrahydro-naphthalen-2-ylamino]-4,6-dimethyl-pyrimidine-5-carbonyl-amino)-3-[(thiophene-2-carbonyl)-amino]-propionic acid]",48 nM
7,"Cc1nc(NCCCc2cccc(O)c2)nc(C)c1C(=O)N[C@@H](CNC(=O)c1ccccn1)C(=O)O [Example 42, (S)-2-({2-[3-(3-hydroxy-phenyl)-propylamino]-4,6-dimethyl-pyrimidine-5-carbonyl}-amino)-3-[(pyridine-2-carbonyl)-amino]-propionic acid]",85 nM
8,"Cc1nc(NCCCc2cccc(O)c2)nc(C)c1C(=O)N[C@@H](CNC(=O)C12CC3CC(CC(C3)C1)C2)C(=O)O [Example 99, (S)-3-[(Adamantane-1-carbonyl)-amino]-2-({2-[3-(3-hydroxy-phenyl)-propylamino]-4,6-dimethyl-pyrimidine-5-carbonyl}-amino)-propionic acid]",287 nM
9,"COC(=O)NC[C@H](NC(=O)c1c(C)nc(NCCCc2cccc(O)c2)nc1C)C(=O)O [Example 109, (S)-2-({2-[3-(3-Hydroxy-phenyl)-propylamino]-4,6-dimethyl-pyrimidine-5-carbonyl}-amino)-3-methoxycarbonylamino-propionic acid]",198 nM
10,"Cc1cccc(C(=O)NC[C@H](NC(=O)c2c(C)nc(NCCCc3cccc(O)c3)nc2C)C(=O)O)c1 [Example 97, (S)-2-({2-[3-(3-hydroxy-phenyl)-propylamino]-4,6-dimethyl-pyrimidine-5-carbonyl}-amino)-3-(3-methyl-benzoylamino)-propionic acid]",177 nM
11,"Cc1nc(NCCCc2cccc(O)c2)nc(C)c1C(=O)N[C@@H](CNC(=O)c1nccc2ccccc12)C(=O)O [Example 45, (S)-2-({2-[3-(3-hydroxy-phenyl)-propylamino]-4,6-dimethyl-pyrimidine-5-carbonyl}-amino)-3-[(isoquinoline-1-carbonyl)-amino]-propionic acid]",87 nM
12,"Cc1nc(NCCCc2ccc(F)c(O)c2)nc(C)c1C(=O)N[C@@H](CNC(=O)c1cccs1)C(=O)O [Example 65, (S)-2-({2-[3-(4-Fluoro-3-hydroxy-phenyl)-propylamino]-4,6-dimethyl-pyrimidine-5-carbonyl}-amino)-3-[(thiophene-2-carbonyl)-amino]-propionic acid]",1300 nM
13,"Cc1nc(NC2CCc3cc(O)ccc3C2)nc(C)c1C(=O)N[C@@H](CNC(=O)c1cccs1)C(=O)O (stereo partly drawn) [Example 17, (S) 2-(2-[6-hydroxy-1,2,3,4-tetrahydro-naphthalen-2-ylamino]-4,6-dimethyl-pyrimidine-5-carbonyl-amino)-3-[(thiophene-2-carbonyl)-amino]-propionic acid]",309 nM
14,"Cc1ccc(CCCNc2nc(C)c(C(=O)N[C@@H](CNC(=O)c3cccs3)C(=O)O)c(C)n2)cc1O [Example 67, (S)-2-({2-[3-(3-Hydroxy-4-methyl-phenyl)-propylamino]-4,6-dimethyl-pyrimidine-5-carbonyl}-amino)-3-[(thiophene-2-carbonyl)-amino]-propionic acid]",329 nM
15,"Cc1ccsc1C(=O)NC[C@H](NC(=O)c1c(C)nc(NCCCc2cccc(O)c2)nc1C)C(=O)O [Example 91, (S)-2-({2-[3-(3-hydroxy-phenyl)-propylamino]-4,6-dimethyl-pyrimidine-5-carbonyl}-amino)-3-[(3-methyl-thiophene-2-carbonyl)-amino]-propionic acid]",42 nM
16,"Cc1nc(NCCCc2cccc(O)c2)nc(C)c1C(=O)N[C@@H](CNC(=O)N1CCCc2ccccc21)C(=O)O [Example 115, (S)-3-[(3,4-Dihydro-2H-quinoline-1-carbonyl)-amino]-2-({2-[3-(3-hydroxy-phenyl)-propylamino]-4,6-dimethyl-pyrimidine-5-carbonyl}-amino)-propionic acid]",456 nM
17,"Cc1csc(C(=O)NC[C@H](NC(=O)c2c(C)nc(NCCCc3cccc(O)c3)nc2C)C(=O)O)c1 [Example 89, (S)-2-({2-[3-(3-hydroxy-phenyl)-propylamino]-4,6-dimethyl-pyrimidine-5-carbonyl}-amino)-3-[(4-methyl-thiophene-2-carbonyl)-amino]-propionic acid]",78 nM
18,"Cc1nc(NCCCc2cccc(O)c2)nc(C)c1C(=O)N[C@@H](CNC(=O)c1csc(-c2ccncc2)n1)C(=O)O [Example 47, (S)-2-({2-[3-(3-hydroxy-phenyl)-propylamino]-4,6-dimethyl-pyrimidine-5-carbonyl}-amino)-3-[(2-pyridin-4-yl-thiazole-4-carbonyl)-amino]-propionic acid]",70 nM
19,"Cc1nc(C)c(C(=O)NC[C@H](NC(=O)c2c(C)nc(NCCCc3cccc(O)c3)nc2C)C(=O)O)s1 [Example 43, (S)-2-({2-[3-(3-hydroxy-phenyl)-propylamino]-4,6-dimethyl-pyrimidine-5-carbonyl}-amino)-3-[(2,4-dimethyl-thiazole-5-carbonyl)-amino]-propionic acid]",128 nM
20,"Cc1nc(NCCCc2cccc(O)c2C)nc(C)c1C(=O)N[C@@H](CNC(=O)c1cccs1)C(=O)O [Example 66, (S)-2-({2-[3-(3-Hydroxy-2-methyl-phenyl)-propylamino]-4,6-dimethyl-pyrimidine-5-carbonyl}-amino)-3-[(thiophene-2-carbonyl)-amino]-propionic acid]",111 nM
21,"Cc1nc(NCc2ccccc2-c2cccc(O)c2)nc(C)c1C(=O)N[C@@H](CNC(=O)c1cccs1)C(=O)O [Example 12, (S)-2-({2-[(3′-hydroxy-biphenyl-2-ylmethyl)-amino]-4,6-dimethyl-pyrimidine-5-carbonyl}-amino)-3-[(thiophene-2-carbonyl)-amino]-propionic acid]",191 nM
